Columns and labels:
[1] = system: Sprague Dawley rats; assay: Toxicity study in rats, oral gavage, daily or 3 times/week for 2 weeks; format: in vivo
Method: A study is carried out to assess the toxicity and toxicokinetics of 4,4,4-Trifluoro-N-[(1S)-2-[[(7S)-5-(2-hydroxyethyl)-6-oxo-7H-pyrido[2,3-d][3]benzazepin-7-yl]amino]-1-methyl-2-oxo-ethyl]butanamide in rats given oral gavage doses of 0, 1.3, or 4.3 mg/kg once daily for 2 weeks or 1, 3, 10, or 30 mg/kg 3 times/week for 2 weeks.
4,4,4-Trifluoro-N-[(1S)-2-[[(7S)-5-(2-hydroxyethyl)-6-oxo-7H-pyrido[2,3-d][3]benzazepin-7-yl]amino]-1-methyl-2-oxo-ethyl]butanamide is combined with a vehicle comprising 1% carboxymethylcellulose sodium, 0.25% polysorbate 80 and 0.05% Dow Corning® Antifoam 1510-US in purified water. Sprague Dawley CD®/IGS rats (crl:CD(SD)), International Genetic Standardization (IGS) 7-9 week old rats, 3/sex/group, Charles River Laboratories, Inc, are used for the study. Animals are fed ad libitum with 12 hours light, 12 hours dark cycle maintained in ventilated stainless-steel racks at an ambient temperature of 22.2+/[…] and relative humidity of 30% to 70%. The test compound is dosed according to Table 1. The test compound is administered by oral gavage in a volume of 10 mL/kg body weight. The duration of the study for all groups is 14 days.
Observations, at a minimum, for Groups 01, 06 and 07 are recorded daily before dosing, approximately one (1) hour postdose, and in the afternoon except afternoon observations are not recorded on weekends. Observations for Groups 02, 03, 04, and 05 are recorded beginning on Day 3. At a minimum, observations are recorded as described on dosing days. On non-dosing days, observations are recorded at approximately the same time as for groups receiving daily doses. Animals are weighed on Days 1, 3, 6, 10, and 14. Terminal body weights are collected at scheduled necropsy. Food consumption weights are recorded on Days 1, 3, 6, 10, and 14.

[2] = Toxicokinetics in Beagle dogs; format: in vivo, dog; details: for Cmax: beagle, po
Method: A study is carried out to assess the Toxicity and Toxicokinetics of 4,4,4-trifluoro-N-[(1S)-2-[[(7S)-5-(2-hydroxyethyl)-6-oxo-7H-pyrido[2,3-d][3]benzazepin-7-yl]amino]-1-methyl-2-oxo-ethyl]butanamide in dogs given oral gavage doses of 0 or 1.3 mg/kg once daily for 6 days or 0.3 or 3 mg/kg every other day for a total of 3 doses. 4,4,4-Trifluoro-N-[(1S)-2-[[(7S)-5-(2-hydroxyethyl)-6-oxo-7H-pyrido[2,3-d][3]benzazepin-7-yl]amino]-1-methyl-2-oxo-ethyl]butanamide is combined with a vehicle comprising 1% carboxymethylcellulose sodium, 0.25% polysorbate 80 and 0.05% Dow Corning® Antifoam 1510-US in purified water. Dogs (beagle), Covance Research Products, 1 animal/sex/group are fed daily (soon after dosing) and are fasted overnight prior to scheduled chemistry blood collections and necropsy. The test compound is administered by oral gavage in a volume of 2 mL/kg body weight. The duration of the study for all groups is 6 days.
Groups 01 and 04, Blood is collected at the following times relative to dosing on Day 1: 0.5, 1, 2, 4, 8, and 24 hours postdose.
Groups 02 and 04: Blood is collected at the following times relative to dosing on Days 2 and 6: 0 (predose; Day 6 only), 0.5, 1, 2, 4, 8, 24, 30, and 48 hours postdose.

[3] = Atropisomer equilibrium in solution by 1H NMR and LC-MS; format: physicochemical; details: ambient temperature, after 24 hours
Method: In aqueous solutions, 8-9% of atropisomer 2 (minor atropisomer) is detected by ^1H NMR and LC-MS in equilibrium with atropisomer 1 (major atropisomer) at ambient temperature after 24 hours. In organic solvents, at ambient temperature after 24 hours, approximately 1-2% of atropisomer 2 is detected by ^1H NMR and LC-MS in equilibrium with atropisomer 1. Although detectable by ^1H NMR and LC-MS analysis, atropisomer 2 is not isolable.

[4] = Beagle dog, single oral dose 1.3 mg/kg, Subject 0007_M
[5] = Beagle dog, single oral dose 1.3 mg/kg, Subject 0008_F
[6] = Beagle dogs, multiple oral doses (3 doses/week), 0.3 mpk, mean n = 2
[7] = Beagle dogs, multiple oral doses (3 doses/week), 3 mpk, mean n = 2
[8] = Beagle dogs, single oral dose 1.3 mg/kg, Mean, n = 2
[9] = Beagle dogs, single oral dose, 0.3 mpk, mean n = 2
[10] = Beagle dogs, single oral dose, 3 mpk, mean n = 2

For C[C@H](NC(=O)CCC(F)(F)F)C(=O)N[C@@H]1C(=O)N(CCO)c2ncccc2-c2ccccc21 [Compound 1, 4,4,4-trifluoro-N-[(1S)-2-[[(7S)-5-(2-hydroxyethyl)-6-oxo-7H-pyrido[2,3-d][3]benzazepin-7-yl]amino]-1-methyl-2-oxo-ethyl]butanamide], the “Tolerability of once daily administration at same total weekly dose” value ([1]; rat, in vivo) was “once daily administration is not tolerated”, the “Compound related toxicities, kidney” value ([1]; rat, in vivo, 10 mg/kg) was “minimal to slight renal tubular degeneration” and the “Gastrointestinal toxicity, daily versus three times/week at same total weekly dose” value ([1]; rats, 1.3 mg/kg daily or 3 mg/kg three times/week, 4.3 mg/kg daily or 10 mg/kg three times/week) was “more severe gastrointestinal toxicity with daily dosing compared to three times/week dosing”. For the same compound, the Survival ([1]; rats, 2 of 3 female TK animals, daily doses of 1.3 mg/kg) was “euthanized on Day 10 due to poor condition”, the Survival ([1]; rats, TK animals, daily doses of 4.3 mg/kg) was “found dead on Days 7, 8, or 10” and the Survival ([1]; rats, all non-TK, male TK and 1 of 3 female TK animals, daily doses of 1.3 mg/kg) was “survived until the scheduled study termination”. For the same compound, the Survival ([1]; rats, all non-toxicokinetic animals, 30 mg/kg 3 times/week) was “euthanized on Day 10 due to poor condition”, the Survival ([1]; rats, animals given daily doses of 4.3 mg/kg (other than TK)) was “euthanized on Day 10 due to poor condition” and the Survival ([1]; rats, non-TK animals given ≤10 mg/kg and TK animals given ≤3 mg/kg 3 times/week) was “survived until the scheduled study termination”. For the same compound, the Survival ([1]; rats, two of three TK animals, 10 mg/kg 3 times/week) was “euthanized on Day 10 due to poor condition and the remaining TK animal was found dead prior to the 48 hr TK time point on Day 16”, the AUC [2, 4] was 4030 ng·h/mL and the Tmax [2, 4] was 30 min. For the same compound, the AUC [2, 5] was 4500 ng·h/mL, the Tmax [2, 5] was 30 min and the AUC [2, 6] was 3070 ng·h/mL. The Tmax [2, 6] was 45 min, the AUC [2, 7] was 14400 ng·h/mL and the Tmax [2, 7] was 45 min. For the same compound, the AUC [2, 8] was 4270 ng·h/mL, the Tmax [2, 8] was 30 min and the AUC [2, 9] was 1290 ng·h/mL. The Tmax [2, 9] was 30 min, the AUC [2, 10] was 5860 ng·h/mL and the Tmax [2, 10] was 30 min. It also gave a Cmax ([2]; both sexes, dog, blood, 1.3 mg/kg, Beagle dogs, single oral dose 1.3 mg/kg, Mean, n = 2) of 1940 ng/mL, a Cmax ([2]; both sexes, dog, in vivo, 0.3 mg/kg, Beagle dogs, multiple oral doses (3 doses/week), 0.3 mpk, mean n = 2) of 2460 ng/mL and a Cmax ([2]; both sexes, dog, in vivo, 0.3 mg/kg, Beagle dogs, single oral dose, 0.3 mpk, mean n = 2) of 309 ng/mL. For the same compound, the Cmax ([2]; both sexes, dog, in vivo, 3 mg/kg, Beagle dogs, multiple oral doses (3 doses/week), 3 mpk, mean n = 2) was 4530 ng/mL, the Cmax ([2]; both sexes, dog, in vivo, 3 mg/kg, Beagle dogs, single oral dose, 3 mpk, mean n = 2) was 2730 ng/mL and the “24 hour drug concentrations” value ([2]; dog, daily and TIW regimens) was “minimal”. For the same compound, the Cmax ([2]; female, dog, blood, 1.3 mg/kg, Beagle dog, single oral dose 1.3 mg/kg, Subject 0008_F) was 2070 ng/mL, the Cmax ([2]; male, dog, blood, 1.3 mg/kg, Beagle dog, single oral dose 1.3 mg/kg, Subject 0007_M) was 1800 ng/mL and the “atropisomer 2 (minor atropisomer) in equilibrium with atropisomer 1” value ([3]; aqueous solutions) was 8-9%. The “atropisomer 2 (minor atropisomer) in equilibrium with atropisomer 1” value ([3]; organic solvents) was 1-2%.

Source: patent publication US20190209581A1, “DOSAGE REGIMEN FOR TREATMENT OF SOLID TUMORS” (Eli Lilly and Company, priority 2016, published 2019)
